Tests used:
Format in all cases: in vivo
[1] = test system: Alopecurus myosuroides; test: Pre-emergence treatment, herbicidal efficacy on blackgrass; settings: 4 weeks after spraying, scale 0 to 10
Protocol: (§1) A rectangular plastic pot having a surface area of 300 cm^2 was filled with sandy loam soil and mixed bed soil which were mixed at a ratio of 1:1, and then, barnyardrass (Echinochloa crusgalli), large crabgrass (Digitaria sanguinalis), blackgrass (Alopecurus myosuroides), and annual bluegrass (Poa annua), which are grass weeds, were seeded thereto. In a pot that was prepared as described above, seeds of corn, soybean, cotton, wheat, and rice were seeded. The pots were irrigated, and one day after, chemicals were sprayed thereto. The spraying was performed by using a track sprayer (R&D Sprayer, USA) equipped with a Teejet 8002 (Spraying Systems Co., USA) nozzle, and a spraying amount was adjusted at 300 L/ha. A spraying solution was prepared by dissolving test materials or references in acetone and adding the same amount of 0.2%(v/v) tween 20 aqueous solution thereto. Application rates were 500, 250, 125, and 62.5 g/ha. The pots were placed in a greenhouse in which during day, the temperature was maintained at a temperature of 25 to 30° C., and during night, the temperature was maintained at a temperature of 15 to 25° C., and the pots were periodically irrigated. Four weeks after the spraying the test materials or References, effects and phytotoxicity of the respective weeds and crops were evaluated in a scale of 0 to 10 (0: no effects, 10: complete death), and results thereof are shown in Table 4 below.

[2] = test system: Digitaria sanguinalis; test: Pre-emergence treatment, herbicidal efficacy on large crabgrass; settings: 4 weeks after spraying, scale 0 to 10
Protocol: as §1

[3] = test system: Corn; test: Pre-emergence treatment, phytotoxicity to corn; settings: 500 g/ha, 4 weeks after spraying, scale 0 to 10 (0: no effects, 10: complete death)
Protocol: as §1

[4] = test system: Soybean; test: Post-emergence treatment, phytotoxicity to soybean; settings: post-emergence (about 3 leaf stage), 1,000 g/ha, 4 weeks after spraying, scale 0 to 10 (0: no effects, 10: complete death)
Protocol: as §1
(§2) Pots containing crops and weeds were prepared in the same manner as in Example 7, and then, in the second week in which crops and weeds entered into about 3 leaf stage, the test materials and the references were sprayed thereto in the same manner as described above. The rates were 1,000, 500, 250, and 125 g/ha. Four weeks after the spraying of the test materials or the references, herbicidal efficacy and phytotoxicity to the respective weeds and crops were evaluated in a scale of 0 to 10 (0: no effects, 10: complete death).

[5] = test system: Digitaria sanguinalis; test: Post-emergence treatment, herbicidal efficacy on large crabgrass; settings: 4 weeks after spraying, scale 0 to 10
Protocol: as §1, §2

[6] = test system: Echinochloa crusgalli; test: Pre-emergence treatment, herbicidal efficacy on barnyardgrass; settings: 4 weeks after spraying
Protocol: as §1

[7] = test system: Poa annua; test: Pre-emergence treatment, herbicidal efficacy on annual bluegrass; settings: 4 weeks after spraying, scale 0 to 10
Protocol: as §1

[8] = test system: Cotton; test: Pre-emergence treatment, phytotoxicity to cotton; settings: 500 g/ha, 4 weeks after spraying, scale 0 to 10 (0: no effects, 10: complete death)
Protocol: as §1

[9] = test system: Poa annua; test: Post-emergence treatment, herbicidal efficacy on annual bluegrass; settings: 4 weeks after spraying, scale 0 to 10
Protocol: as §1, §2

[10] = test system: Rice; test: Post-emergence treatment, phytotoxicity to rice; settings: post-emergence (about 3 leaf stage), 1,000 g/ha, 4 weeks after spraying, scale 0 to 10 (0: no effects, 10: complete death)
Protocol: as §1, §2

[11] = test system: Echinochloa crusgalli; test: Post-emergence treatment, herbicidal efficacy on barnyardgrass; settings: 4 weeks after spraying, scale 0 to 10
Protocol: as §1, §2

[12] = test system: Cotton; test: Post-emergence treatment, phytotoxicity to cotton; settings: post-emergence (about 3 leaf stage), 1,000 g/ha, 4 weeks after spraying, scale 0 to 10 (0: no effects, 10: complete death)
Protocol: as §1, §2

[13] = test system: Rice; test: Pre-emergence treatment, phytotoxicity to rice; settings: 500 g/ha, 4 weeks after spraying, scale 0 to 10 (0: no effects, 10: complete death)
Protocol: as §1

[14] = test system: Wheat; test: Post-emergence treatment, phytotoxicity to wheat; settings: post-emergence (about 3 leaf stage), 1,000 g/ha, 4 weeks after spraying, scale 0 to 10 (0: no effects, 10: complete death)
Protocol: as §1, §2

[15] = test system: Wheat; test: Pre-emergence treatment, phytotoxicity to wheat; settings: 500 g/ha, 4 weeks after spraying, scale 0 to 10 (0: no effects, 10: complete death)
Protocol: as §1

[16] = test system: Soybean; test: Pre-emergence treatment, phytotoxicity to soybean; settings: 500 g/ha, 4 weeks after spraying, scale 0 to 10 (0: no effects, 10: complete death)
Protocol: as §1

[17] = test system: Corn; test: Post-emergence treatment, phytotoxicity to corn; settings: post-emergence (about 3 leaf stage), 1,000 g/ha, 4 weeks after spraying, scale 0 to 10 (0: no effects, 10: complete death)
Protocol: as §1, §2

[18] = test system: Alopecurus myosuroides; test: Post-emergence treatment, herbicidal efficacy on blackgrass; settings: 4 weeks after spraying, scale 0 to 10
Protocol: as §1, §2

[19] = 500 g/ha, scale 0 to 10 (0: no effects, 10: complete death)

## CC1(COCc2c(F)cccc2Cl)CC(c2ccccc2Cl)=NO1 (stereo not drawn) [Reference B]
[1]; 62.5 g/ha
  Herbicidal efficacy, Alopecurus myosuroides: 0
[1]; 125 g/ha
  Herbicidal efficacy, Alopecurus myosuroides: 0
[1]; 250 g/ha
  Herbicidal efficacy, Alopecurus myosuroides: 3
[1]; 500 g/ha
  Herbicidal efficacy, Alopecurus myosuroides: 10
[2]; 62.5 g/ha
  Herbicidal efficacy, Digitaria sanguinalis: 0
[2]; 125 g/ha
  Herbicidal efficacy, Digitaria sanguinalis: 4
[2]; 250 g/ha
  Herbicidal efficacy, Digitaria sanguinalis: 8
[2]; 500 g/ha
  Herbicidal efficacy, Digitaria sanguinalis: 9
[3]
  Phytotoxicity, Corn: 0
[4]
  Phytotoxicity, Soybean: 2
[5]; post-emergence, 125 g/ha
  Herbicidal efficacy, Digitaria sanguinalis: 0
[5]; post-emergence, 250 g/ha
  Herbicidal efficacy, Digitaria sanguinalis: 5
[5]; post-emergence, 500 g/ha
  Herbicidal efficacy, Digitaria sanguinalis: 6
[5]; post-emergence, 1,000 g/ha
  Herbicidal efficacy, Digitaria sanguinalis: 8
[6]; 62.5 g/ha, scale 0 to 10
  Herbicidal efficacy, Echinochloa crusgalli: 2
[6]; 125 g/ha, scale 0 to 10
  Herbicidal efficacy, Echinochloa crusgalli: 5
[6]; 250 g/ha, scale 0 to 10
  Herbicidal efficacy, Echinochloa crusgalli: 7
[6]; [19]
  Herbicidal efficacy, Echinochloa crusgalli: 10
[7]; 62.5 g/ha
  Herbicidal efficacy, Poa annua: 2
[7]; 125 g/ha
  Herbicidal efficacy, Poa annua: 4
[7]; 250 g/ha
  Herbicidal efficacy, Poa annua: 8
[7]; 500 g/ha
  Herbicidal efficacy, Poa annua: 10
[8]
  Phytotoxicity, Cotton: 0
[9]; post-emergence, 125 g/ha
  Herbicidal efficacy, Poa annua: 0
[9]; post-emergence, 250 g/ha
  Herbicidal efficacy, Poa annua: 1
[9]; post-emergence, 500 g/ha
  Herbicidal efficacy, Poa annua: 4
[9]; post-emergence, 1,000 g/ha
  Herbicidal efficacy, Poa annua: 6
[10]
  Phytotoxicity, Rice: 0
[11]; post-emergence, 125 g/ha
  Herbicidal efficacy, Echinochloa crusgalli: 0
[11]; post-emergence, 250 g/ha
  Herbicidal efficacy, Echinochloa crusgalli: 0
[11]; post-emergence, 500 g/ha
  Herbicidal efficacy, Echinochloa crusgalli: 1
[11]; post-emergence, 1,000 g/ha
  Herbicidal efficacy, Echinochloa crusgalli: 7
[12]
  Phytotoxicity, Cotton: 0
[13]
  Phytotoxicity, Rice: 0
[14]
  Phytotoxicity, Wheat: 0
[15]
  Phytotoxicity, Wheat: 0
[16]
  Phytotoxicity, Soybean: 0
[17]
  Phytotoxicity, Corn: 0
[18]; post-emergence, 125 g/ha
  Herbicidal efficacy, Alopecurus myosuroides: 0
[18]; post-emergence, 250 g/ha
  Herbicidal efficacy, Alopecurus myosuroides: 0
[18]; post-emergence, 500 g/ha
  Herbicidal efficacy, Alopecurus myosuroides: 0
[18]; post-emergence, 1,000 g/ha
  Herbicidal efficacy, Alopecurus myosuroides: 3

## Cc1ccccc1C1=NOC(C)(COCc2ccccc2F)C1 (stereo not drawn) [Reference D]
[1]; 62.5 g/ha
  Herbicidal efficacy, Alopecurus myosuroides: 0
[1]; 125 g/ha
  Herbicidal efficacy, Alopecurus myosuroides: 0
[1]; 250 g/ha
  Herbicidal efficacy, Alopecurus myosuroides: 3
[1]; 500 g/ha
  Herbicidal efficacy, Alopecurus myosuroides: 9
[2]; 62.5 g/ha
  Herbicidal efficacy, Digitaria sanguinalis: 0
[2]; 125 g/ha
  Herbicidal efficacy, Digitaria sanguinalis: 2
[2]; 250 g/ha
  Herbicidal efficacy, Digitaria sanguinalis: 6
[2]; 500 g/ha
  Herbicidal efficacy, Digitaria sanguinalis: 10
[3]
  Phytotoxicity, Corn: 0
[4]
  Phytotoxicity, Soybean: 0
[5]; post-emergence, 125 g/ha
  Herbicidal efficacy, Digitaria sanguinalis: 0
[5]; post-emergence, 250 g/ha
  Herbicidal efficacy, Digitaria sanguinalis: 0
[5]; post-emergence, 500 g/ha
  Herbicidal efficacy, Digitaria sanguinalis: 4
[5]; post-emergence, 1,000 g/ha
  Herbicidal efficacy, Digitaria sanguinalis: 7
[6]; 62.5 g/ha, scale 0 to 10
  Herbicidal efficacy, Echinochloa crusgalli: 1
[6]; 125 g/ha, scale 0 to 10
  Herbicidal efficacy, Echinochloa crusgalli: 3
[6]; 250 g/ha, scale 0 to 10
  Herbicidal efficacy, Echinochloa crusgalli: 6
[6]; [19]
  Herbicidal efficacy, Echinochloa crusgalli: 10
[7]; 62.5 g/ha
  Herbicidal efficacy, Poa annua: 0
[7]; 125 g/ha
  Herbicidal efficacy, Poa annua: 2
[7]; 250 g/ha
  Herbicidal efficacy, Poa annua: 5
[7]; 500 g/ha
  Herbicidal efficacy, Poa annua: 8
[8]
  Phytotoxicity, Cotton: 0
[9]; post-emergence, 125 g/ha
  Herbicidal efficacy, Poa annua: 0
[9]; post-emergence, 250 g/ha
  Herbicidal efficacy, Poa annua: 0
[9]; post-emergence, 500 g/ha
  Herbicidal efficacy, Poa annua: 2
[9]; post-emergence, 1,000 g/ha
  Herbicidal efficacy, Poa annua: 5
[10]
  Phytotoxicity, Rice: 0
[11]; post-emergence, 125 g/ha
  Herbicidal efficacy, Echinochloa crusgalli: 0
[11]; post-emergence, 250 g/ha
  Herbicidal efficacy, Echinochloa crusgalli: 0
[11]; post-emergence, 500 g/ha
  Herbicidal efficacy, Echinochloa crusgalli: 1
[11]; post-emergence, 1,000 g/ha
  Herbicidal efficacy, Echinochloa crusgalli: 4
[12]
  Phytotoxicity, Cotton: 0
[13]
  Phytotoxicity, Rice: 0
[14]
  Phytotoxicity, Wheat: 0
[15]
  Phytotoxicity, Wheat: 0
[16]
  Phytotoxicity, Soybean: 0
[17]
  Phytotoxicity, Corn: 0
[18]; post-emergence, 125 g/ha
  Herbicidal efficacy, Alopecurus myosuroides: 0
[18]; post-emergence, 250 g/ha
  Herbicidal efficacy, Alopecurus myosuroides: 0
[18]; post-emergence, 500 g/ha
  Herbicidal efficacy, Alopecurus myosuroides: 3
[18]; post-emergence, 1,000 g/ha
  Herbicidal efficacy, Alopecurus myosuroides: 4

Source: US9439432B2, “Phenylisoxazoline-based compound having herbicidal activity and use thereof” (MOGHU RESEARCH CENTER LTD, priority 2011, dated 2016)
